Series [1] has as its system HAS3. Put plainly: HAS3 gene expression by dermal fibroblasts (qPCR). In kind it is cell-based, human. An excerpt:
A normal adult skin biopsy (6 mm) was obtained (n=1), with informed consent, from an individual attending the Oral Surgery Clinic, School of Dentistry, Wales College of Medicine, Cardiff. Following the application of a local anaesthetic, the dermal biopsy was collected and adult dermal fibroblast cultures established by single cell suspension technique, following enzymic degradation of the specimen. This technique has previously been reliably used to establish viable primary cultures of both oral and dermal fibroblasts in vitro (Cook et al, 2000; Stephens et al, 2001; 2003). Dermal fibroblasts were cultured in Fibroblast-Serum Containing Medium, containing Dulbecco's Modified Eagle's Medium (DMEM), supplemented with L-glutamine (2 mM), antibiotics (100 U/ml) penicillin G sodium, […] streptomycin sulphate and 0.25 μg/ml amphotericin B) and 10% foetal calf serum (all purchased from Invitrogen Ltd., Paisley, U.K.). Dermal fibroblast cultures were maintained at 37° C., in a 5% CO2/95% air atmosphere, with the culture medium being changed every 2-3 days. Dermal fibroblasts were used between) passage 7-17, for all experiments.
Following trypsinization, dermal fibroblasts were seeded in 24-well tissue culture plates, in PEP005-free, Fibroblast-Serum Containing Medium (1 ml), at a cell density of 2.5×10^4 cell/well. Dermal fibroblasts were maintained at 37° C., in a 5% CO2/95% air atmosphere, overnight. At this stage, the culture medium was replaced with Fibroblast-Serum Containing Medium (600 μl), containing 0 μg/ml, 0.01 μg/ml, 0.1 μg/ml, 1 μg/ml, 10 μg/ml or 100 μg/ml PEP005, +/−TGF-β1 (10 ng/ml) (three culture wells per PEP005 concentration). A control was also established, consisting of cells in Fibroblast-Serum Containing Medium, containing 1% DMSO. The dermal fibroblasts were maintained at 37° C., in a 5% CO2/95% air atmosphere, for 24 h or 72 h, prior to washing in PBS (3×1 ml) and Trizol® Reagent (250 μl) added to the cells, for 5 min at room temperature, to induce cell lysis. RNA was extracted by the phenol-chloroform method, as described above, while a cDNA library was generated via random hexamer RT, as described above. RNA (1 μg) was added to 100 µM random hexamer (1 μl), 5×RT Buffer (4 μl), 2.5 mM Deoxynucleoside Triphosphates (dNTPs, 5 μl), 2 μl DTT and Nuclease-Free Water, were added to the reaction (total volume, 20 μl). To denature the RNA, reaction tubes were placed in a GeneAmp PCR System 9700 (Applied Biosystems, Cheshire, U.K.) and heated for 5 min/95° C., prior to cooling to 4° C. Superscript (1 μl) and RNAsin® Ribonuclease Inhibitor (1 μl, Promega, Hampshire, U.K.) were added to each tube, and the tubes subjected to […] at 20° C. for 10 min, 42° C. for 1 h and 95° C. for 5 min, prior to storage at 4° C., until required. As a negative control, RT was also performed, with Nuclease-Free Water replacing the RNA sample.
qPCR was performed, as described above, with the probe and primers for HAS1, HAS2 and HAS3 (target genes) and the 18s ribosomal RNA (reference gene), designed and supplied by Applied Biosystems. PCR was performed in a final volume of 20 μl/sample, with each reaction mix consisting of cDNA (1 μl), target gene primers and probe (1 μl), Taqman® FAST Universal PCR Master Mix (10 μl, Applied Biosystems), and Nuclease-Free Water (8 μl). PCR amplification was performed, using an initial cycle of 95° C. for 1 s, followed by 40 cycles of 60° C. for 20 s. A cDNA-free control was also included. Again, the comparative CT method was used for relative quantification of gene expression. Each experiment was performed on three separate occasions.
In general terms: Real-time PCR tracks product formation cycle by cycle.

The nature of series [2]: Stability of PEP005/DMSO stock solution. In kind it is physicochemical. As to conditions: 10 mg/ml in DMSO, stored at 4° C. On the procedure:
PEP005, obtained from Peplin in 20 mg batches, was stored at 4° C. When required, the PEP005 was solubilized in dimethyl sulphoxide (DMSO, >99.9%, Sigma Chemical Company, Dorset, U.K.), at a concentration of 10 mg/ml. […] Prior to use, the PEP005/DMSO stock solution was removed from 4° C. storage and warmed to room temperature. The required volumes of PEP005/DMSO were aliquoted into a poly-propylene vessel and the PEP005/DMSO diluted to the required concentration (typically 0.01 μg/ml, 0.1 μg/ml, 1 μg/ml, 10 μg/ml and 100 μg/ml) in Fibroblast-Serum Containing Medium (for dermal fibroblast cultures, Section 3.1), with fresh PEP005/culture medium solutions being prepared daily, at the various concentrations above, due to solution stability. Prior to discarding PEP005/culture medium solutions, at least two volumes of 0.1% sodium hydroxide (Sigma Chemical Company), in 95% ethanol/5% methanol (both from Thermo Fisher Scientific, Leicestershire, U.K.), was added to each solution, to deactivate.

The results in this text go back to patent US10143638B2, “Method of treating skin with ingenol mebutate” (LEO Laboratories Limited, priority 2009, dated 2018).

Consider `C/C=C(/C)C(=O)O[C@H]1C(C)=C[C@]23C(=O)[C@@H](C=C(CO)[C@@H](O)[C@]12O)[C@H]1[C@@H](C[C@H]3C)C1(C)C` [PEP005, ingenol-3-angelate], for which the HAS3 expression result in series [1] (PEP005 0.01-100 μg/ml plus TGF-β1 (10 ng/ml), 72 h (p>0.05)) is recorded as “no significant effects”; in series [1] (PEP005 0.01-100 μg/ml, absence of TGF-β1, 24 h, non-significant (p>0.05)), “completely abolished”; in series [1] (PEP005 0.1-10 μg/ml plus TGF-β1 (10 ng/ml), 24 h, down-regulation, non-significant (p>0.05)) it was “barely detectable levels”. Besides, the HAS3 gene expression entry in series [1] (PEP005 1-10 μg/ml, absence of TGF-β1, 72 h, non-significant (p>0.05)) is given as “up-regulation”. In series [2], the “stability of PEP005/DMSO stock solution” value was “stable for several months”.
